Laboratory results taken from patent publication US5055396A, “Diagnostic methods and systems for quantifying APO AI” (Scripps Clinic and Research Foundation, priority 1987, dated 1991).

Tested on: MAB AI-18
Test: Competitive RIA: inhibition of MAB AI-18 binding to solid-phase Apo AI/HDL by competitor antigen or peptide
Design: species or system mouse
Details: for ability of the peptide to immunologically mimic a native conserved epitope of Apo AI: FIG. 5, proline 99 deleted or substituted by glycine; for Immunoreactivity (concentration of peptide competitor required to achieve a B/Bo value of 0.5): competitive RIA, MAB AI-18 ascites 1:1.25×10^5, solid-phase Apo AI/HDL; for B/Bo: background-adjusted; for expression of the epitope recognized by MAB AI-18 after NaOH treatment: NaOH treated Apo AI/HDL, 18 hours at about 20 degrees C; for immunoreactivity values (in words): higher value represents a lower affinity
Protocol: One hundred ul of PBS (0.15M NaCl, 0.01M NaPO4, pH 7.2) containing 10 ug/ml Apo AI/HDL were admixed to the wells of microtiter plates. The plates were maintained for 1 hour at 20 degrees C. on a rotating platform to allow the Apo AI/HDL to adhere to the wells and form solid supports. After aspirating excess liquid from the wells, 200 ul of block solution (3% BSA, 3% NGS in PBS) was admixed to each well, and the wells were maintained for 30 minutes at 20 degrees C. on a rotating platform. Subsequently, the blocking solution was removed by aspiration and the wells were washed 3 times with SPRIA buffer.
In control wells either competing antigen or antibody was replaced by PBS containing 3% BSA.
The immunoreaction admixtures were maintained about 16 hours at 4 degrees C. on a rotating platform to permit formation of solid-phase immunoreaction products. […] The labeling immunoreaction admixtures so formed were maintained for 4 hours at 4 degrees C. on a rotating platform.
[…] of serial 3 fold dilutions of each sample prepared in Table 3 were admixed as competitor in the RIA described in this Example.
Fifty microliters of the stock of 2 fold serial dilutions of the stock were used as competitor in the RIA described in this Example.

| Substance | ability of the peptide to immunologically mimic a native conserved epitope of Apo AI | Immunoreactivity (concentration of peptide competitor required to achieve a B/Bo value of 0.5) | slope of logit transformed competition data (competitor HDL or fresh plasma, FIG. 2) | CPM of 125I-labeled solid phase immunoreaction product (competitor dilution 1:3) | B/Bo (competitor dilution 1:3) | CPM of 125I-labeled solid phase immunoreaction product (competitor dilution 1:9) | B/Bo (competitor dilution 1:9) | CPM of 125I-labeled solid phase immunoreaction product (competitor dilution 1:27) | B/Bo (competitor dilution 1:27) | CPM of 125I-labeled solid phase immunoreaction product (competitor dilution 1:81) | B/Bo (competitor dilution 1:81) | CPM of 125I-labeled solid phase immunoreaction product (competitor dilution 1:243) | B/Bo (competitor dilution 1:243) | CPM of 125I-labeled solid phase immunoreaction product (competitor dilution 1:729) | B/Bo (competitor dilution 1:729) | CPM of 125I-labeled solid phase immunoreaction product (competitor dilution Neat) | B/Bo (competitor dilution Neat) | expression of the epitope recognized by MAB AI-18 after NaOH treatment | immunoreactivity values (in words) |
| --- | --- | --- | --- | --- | --- | --- | --- | --- | --- | --- | --- | --- | --- | --- | --- | --- | --- | --- | --- |
| AKVQGYLDDFQ [AI95-105 (G/P)] | substantially decreases the ability of the peptide to immunologically mimic a native conserved epitope | > 10,000 ug protein/ml | – | – | – | – | – | – | – | – | – | – | – | – | – | – | – | – | – |
| AKVQPYLDDFQ [AI95-105] | – | 45 ug protein/ml | – | – | – | – | – | – | – | – | – | – | – | – | – | – | – | – | – |
| AKVQYLDDFQ [AI95-105 (-P)] | substantially decreases the ability of the peptide to immunologically mimic a native conserved epitope | > 10,000 ug protein/ml | – | – | – | – | – | – | – | – | – | – | – | – | – | – | – | – | – |
| Apo AI/HDL: Apo AI when it is present on HDL particles [reference compound] | – | – | -2.03 | 2348 CPM | 0.277 | 3778 CPM | 0.460 | 5057 CPM | 0.624 | 5868 CPM | 0.729 | 6380 CPM | 0.794 | 6679 CPM | 0.833 | 1152 CPM | 0.123 | – | – |
| B: NaOH treated Apo AI/HDL, 5 ul 0.01N NaOH, pH 6.34 | – | – | – | 2852 CPM | 0.341 | 4399 CPM | 0.540 | 6195 CPM | 0.771 | 6988 CPM | 0.872 | 7483 CPM | 0.936 | 7406 CPM | 0.926 | 1110 CPM | 0.118 | stable to NaOH treatments | – |
| C: NaOH treated Apo AI/HDL, 50 ul 0.01N NaOH, pH 7.04 | – | – | – | 2479 CPM | 0.293 | 4502 CPM | 0.553 | 6005 CPM | 0.746 | 6618 CPM | 0.825 | 7277 CPM | 0.909 | 7485 CPM | 0.936 | 1070 CPM | 0.112 | stable to NaOH treatments | – |
| D: NaOH treated Apo AI/HDL, 5 ul 1N NaOH, pH 10.67 | – | – | – | 1174 CPM | 0.126 | 2746 CPM | 0.328 | 3854 CPM | 0.470 | 5220 CPM | 0.645 | 6385 CPM | 0.795 | 6917 CPM | 0.863 | 589 CPM | 0.051 | decrease in expression of the epitope | – |
| E: NaOH treated Apo AI/HDL, 15 ul 1N NaOH, pH 11.33 | – | – | – | 553 CPM | 0.046 | 881 CPM | 0.088 | 1543 CPM | 0.173 | 2283 CPM | 0.268 | 3338 CPM | 0.404 | 4918 CPM | 0.607 | 263 CPM | 0.009 | decrease in expression of the epitope | – |
| F: NaOH treated Apo AI/HDL, 50 ul 1N NaOH, pH 11.86 | – | – | – | 185 CPM | -.001 | 281 CPM | 0.011 | 342 CPM | 0.019 | 516 CPM | 0.041 | 744 CPM | 0.071 | 1295 CPM | 0.141 | 222 CPM | 0.004 | decrease in expression of the epitope | – |
| G: NaOH treated Apo AI/HDL, 250 ul 1N NaOH, pH 12.85 | – | – | – | 305 CPM | 0.016 | 339 CPM | 0.019 | 497 CPM | 0.039 | 771 CPM | 0.074 | 1157 CPM | 0.124 | 1891 CPM | 0.218 | 195 CPM | 0.000 | decrease in expression of the epitope | – |
| KVQPYL (UniProt P02647 120-125, looked up, fragment) [AI96-101] | – | > 10,000 ug protein/ml | – | – | – | – | – | – | – | – | – | – | – | – | – | – | – | – | – |
| LDDFQKKWQEE [AI101-111] | – | > 10,000 ug protein/ml | – | – | – | – | – | – | – | – | – | – | – | – | – | – | – | – | high immunoreactivity values |
| LEEVKAKVQPYLDDFQKKWQEE [AI90-111] | – | 9 ug protein/ml | – | – | – | – | – | – | – | – | – | – | – | – | – | – | – | – | – |
| QKKWQEEMELYR [AI105-116] | – | > 10,000 ug protein/ml | – | – | – | – | – | – | – | – | – | – | – | – | – | – | – | – | high immunoreactivity values |
| SKDLEEVKAKVQPYL [AI87-101] | – | 8,400 ug protein/ml | – | – | – | – | – | – | – | – | – | – | – | – | – | – | – | – | high immunoreactivity values |
| SKDLEEVKAKVQPYLDDFQ [AI87-105] | – | 10 ug protein/ml | – | – | – | – | – | – | – | – | – | – | – | – | – | – | – | – | – |
| Sample A: Apo AI/HDL, no NaOH treatment control, pH 6.26 [reference compound] | – | – | – | 2542 CPM | 0.301 | 4799 CPM | 0.527 | 5786 CPM | 0.718 | 6745 CPM | 0.841 | 7270 CPM | 0.090 | 7255 CPM | 0.907 | 965 CPM | 0.099 | – | – |
| VKAKVQPYL [AI93-101] | – | > 10,000 ug protein/ml | – | – | – | – | – | – | – | – | – | – | – | – | – | – | – | – | high immunoreactivity values |
| YLDDFQ (UniProt P02647 124-129, looked up, fragment) [AI100-105] | – | > 10,000 ug protein/ml | – | – | – | – | – | – | – | – | – | – | – | – | – | – | – | – | high immunoreactivity values |
